Measured values: ChEMBL document CHEMBL3593205, “Total Synthesis of 4,5-Didehydroguadiscine: A Potent Melanogenesis Inhibitor from the Brazilian Medicinal Herb, Hornschuchia obliqua” (J Nat Prod, 2015)

Key:
[1] = Inhibition of theophylline-stimulated melanogenesis in mouse B16-4A5 cells after 72 hrs by microplate reader analysis; format: functional, cell-based
[2] = Potency index, ratio of arbutin IC50 to compound IC50 for inhibition of theophylline-stimulated melanogenesis in mouse B16-4A5 cells; format: functional
[3] = Cytotoxicity against mouse B16-4A5 cells assessed as cell viability at 3 uM after 72 hrs by MTT assay in presence of theophylline relative to control; format: cell-based; details: read-out: Activity
[4] = Cytotoxicity against mouse B16-4A5 cells assessed as cell viability at 10 uM after 72 hrs by MTT assay in presence of theophylline relative to control; format: cell-based; details: read-out: Activity

IC50 [1]: 4.7 µM
SMILES: COc1ccc2c(c1)C(C)(C)c1nccc3cc4c(c-2c13)OCO4
Ratio IC50 [2]: 40
viability at 72 h, 3 µM [3]: 95.7%
viability at 72 h, 10 µM [4]: 86.7%
